The source made the active and inactive calls. The calls are words filed in the database; no cut-off is given here.
Columns and labels:
3T3-L1 [1] = assay: Antidiabetic activity in mouse 3T3L1 preadipocytes assessed as increase in triglycerides level after 6 days; type: functional, cell-based; details: 3T3-L1, 144 h
3T3-L1 [2] = assay: Antidiabetic activity in mouse 3T3L1 preadipocytes assessed as increase in triglycerides level at 1 to 5 uM after 6 days by ORO staining based microscopic method; type: functional, cell-based
3T3-L1 [3] = assay: Antidiabetic activity in mouse 3T3L1 preadipocytes assessed as increase in triglycerides level at 5 uM after 6 days; type: functional, cell-based
3T3-L1 [4] = assay: Cytotoxicity against mouse 3T3L1 preadipocytes assessed as reduction in cell viability at 50 uM; type: cell-based; details: 3t3-l1, 50 µM
3T3-L1 [5] = assay: Antidiabetic activity in mouse 3T3L1 preadipocytes assessed as increase in triglycerides level at 5 uM up to 3 days by ORO staining based microscopic method; type: functional, cell-based
3T3-L1 [6] = assay: Antidiabetic activity in mouse 3T3L1 preadipocytes assessed as increase in triglycerides level at 5 uM after 3 to 6 days by ORO staining based microscopic method; type: functional, cell-based
[7] = target: T1, Peroxisome proliferator-activated receptor gamma (Mus musculus) (UniProt P37238); assay: Agonist activity at PPARgamma in mouse 3T3L1 preadipocytes assessed as increase in AMPKalpha mRNA expression at 5 uM after 6 days by RT-PCR analysis; type: cell-based; details: 3T3-L1
T1 sequence (whole entry): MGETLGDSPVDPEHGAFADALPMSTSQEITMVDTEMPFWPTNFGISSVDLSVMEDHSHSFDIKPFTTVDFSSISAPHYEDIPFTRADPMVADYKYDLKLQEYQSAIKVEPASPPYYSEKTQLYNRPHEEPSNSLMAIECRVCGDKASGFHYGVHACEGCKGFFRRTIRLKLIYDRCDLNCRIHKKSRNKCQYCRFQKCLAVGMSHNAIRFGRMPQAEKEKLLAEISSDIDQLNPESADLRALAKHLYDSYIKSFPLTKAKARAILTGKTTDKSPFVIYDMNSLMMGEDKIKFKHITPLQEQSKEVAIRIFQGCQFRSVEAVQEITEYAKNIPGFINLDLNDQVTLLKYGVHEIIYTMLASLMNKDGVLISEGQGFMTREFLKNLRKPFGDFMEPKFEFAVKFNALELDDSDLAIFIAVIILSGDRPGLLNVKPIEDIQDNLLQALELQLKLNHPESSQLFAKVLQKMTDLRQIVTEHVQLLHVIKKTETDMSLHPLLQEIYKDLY

[8] = target: T1, Peroxisome proliferator-activated receptor gamma (Mus musculus); assay: Agonist activity at PPARgamma in mouse 3T3L1 preadipocytes assessed as increase in C/EBPalpha mRNA expression at 5 uM after 6 days by RT-PCR analysis; type: cell-based; details: 3T3-L1
[9] = target: T1, Peroxisome proliferator-activated receptor gamma (Mus musculus); assay: Agonist activity at PPARgamma in mouse 3T3L1 preadipocytes assessed as increase in PPARgamma mRNA expression at 5 uM after 6 days by RT-PCR analysis; type: cell-based; details: 3T3-L1
[10] = target: T1, Peroxisome proliferator-activated receptor gamma (Mus musculus); assay: Agonist activity at PPARgamma in mouse 3T3L1 preadipocytes assessed as increase in LXRalpha mRNA expression at 5 uM after 6 days by RT-PCR analysis; type: cell-based; details: 3T3-L1
[11] = target: T1, Peroxisome proliferator-activated receptor gamma (Mus musculus); assay: Agonist activity at PPARgamma in mouse 3T3L1 preadipocytes assessed as increase in SCD-1 mRNA expression at 5 uM after 6 days by RT-PCR analysis; type: cell-based; details: 3T3-L1
[12] = target: T1, Peroxisome proliferator-activated receptor gamma (Mus musculus); assay: Agonist activity at PPARgamma in mouse 3T3L1 preadipocytes assessed as increase in FABP4 mRNA expression at 5 uM after 6 days by RT-PCR analysis; type: cell-based; details: 3T3-L1
3T3-L1 [13] = assay: Antidiabetic activity in mouse 3T3L1 preadipocytes assessed as increase in triglycerides level at 5 uM after 6 days in presence of GW9662; type: functional, cell-based
3T3-L1 [14] = assay: Antidiabetic activity in mouse 3T3L1 preadipocytes assessed as increase in triglycerides level at 5 uM after 6 days in presence of T0070907; type: functional, cell-based

| Activity [7] | Activity [8] | Activity [9] | Activity [10] | Activity [11] | Activity [12] | Structure (SMILES) | EC50 (3T3-L1 [1]) [nM] | Activity (3T3-L1 [2]) | Activity (3T3-L1 [3]) | Activity (3T3-L1 [4]) | Activity (3T3-L1 [5]) | Activity (3T3-L1 [6]) | Activity (3T3-L1 [13]) | Activity (3T3-L1 [14]) |
| --- | --- | --- | --- | --- | --- | --- | --- | --- | --- | --- | --- | --- | --- | --- |
| – | – | – | – | – | – | CN(CCOc1ccc(CC2SC(=O)NC2=O)cc1)c1ccccn1 (stereo unspecified) [ROSIGLITAZONE] | 120 | – | – | – | – | – | – | – |
| – | – | – | – | – | – | C/C=C1\NC(=O)[C@@H](Cc2c[nH]c3ccccc23)n2c1nc1ccccc1c2=O | 1030 | Active | Active | Non-Toxic | Active | Active | – | – |
| – | – | – | – | – | – | CC(C)=C1NC(=O)[C@@H](C[C@]2(O)c3ccccc3N3C(=O)C(C)(C)N[C@H]32)n2c1nc1ccccc1c2=O | 2340 | Active | Active | Non-Toxic | Active | Active | – | – |
| Active | Active | Active | Active | Active | Active | CC[C@@H]1N[C@@H]2N(C1=O)c1ccccc1[C@@]2(O)C[C@@H]1C(=O)NC(=C(C)C)c2nc3ccccc3c(=O)n21 | 270 | Active | Active | Non-Toxic | Active | Active | inactive | inactive |
| Active | Active | Active | Active | Active | Active | CC(C)=C1NC(=O)[C@@H](C[C@]2(O)c3ccccc3N3C(=O)[C@H](C(C)C)N[C@H]32)n2c1nc1ccccc1c2=O | 360 | Active | Active | Non-Toxic | Active | Active | inactive | inactive |

Source: ChEMBL document CHEMBL4610073, “Potential Antidiabetic Fumiquinazoline Alkaloids from the Marine-Derived Fungus Scedosporium apiospermum F41-1” (J Nat Prod, 2020)
